# Test system: SEM cells
# Experiment: cell viability relative to DMSO control; higher = less cytotoxic
# Conditions: 48 h
# Summary of the method: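 Three leukemia lines were tested: NOMO1 and SEM at 500 cells/well and P12-Ichikawa at 1000 cells/well. Each was adapted for at least four passages in each medium and seeded in 5 μl in 1536-well plates, and library compounds in DMSO were pin-dosed from 47 μM to 0.79 nM in 11 threefold steps. After 48 h at 37°C, CellTiter-Glo One luminescence was read. Viability is a percentage relative to DMSO wells on each plate, with cell-free wells as background.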
# [1] = HPLM + 10% dialyzed FBS, 0.000781 µM
# [2] = HPLM + 10% dialyzed FBS, 0.00234 µM
# [3] = HPLM + 10% dialyzed FBS, 0.00702 µM
# [4] = HPLM + 10% dialyzed FBS, 0.0211 µM
# [5] = HPLM + 10% dialyzed FBS, 0.0632 µM
# [6] = HPLM + 10% dialyzed FBS, 0.19 µM
# [7] = HPLM + 10% dialyzed FBS, 0.569 µM
# [8] = HPLM + 10% dialyzed FBS, 1.71 µM
# [9] = HPLM + 10% dialyzed FBS, 5.12 µM
# [10] = HPLM + 10% dialyzed FBS, 15.4 µM
# [11] = HPLM + 10% dialyzed FBS, 46.1 µM
# [12] = RPMI 5 mM glucose + 10% FBS, 0.000781 µM
# [13] = RPMI 5 mM glucose + 10% FBS, 0.00234 µM
# [14] = RPMI 5 mM glucose + 10% FBS, 0.00702 µM
# [15] = RPMI 5 mM glucose + 10% FBS, 0.0211 µM
# [16] = RPMI 5 mM glucose + 10% FBS, 0.0632 µM
# [17] = RPMI 5 mM glucose + 10% FBS, 0.19 µM
# [18] = RPMI 5 mM glucose + 10% FBS, 0.569 µM
# [19] = RPMI 5 mM glucose + 10% FBS, 1.71 µM
# [20] = RPMI 5 mM glucose + 10% FBS, 5.12 µM
# [21] = RPMI 5 mM glucose + 10% FBS, 15.4 µM
# [22] = RPMI 5 mM glucose + 10% FBS, 46.1 µM
# [23] = RPMI 5 mM glucose + 10% dialyzed FBS, 0.000781 µM
# [24] = RPMI 5 mM glucose + 10% dialyzed FBS, 0.00234 µM
# [25] = RPMI 5 mM glucose + 10% dialyzed FBS, 0.00702 µM
# [26] = RPMI 5 mM glucose + 10% dialyzed FBS, 0.0211 µM
# [27] = RPMI 5 mM glucose + 10% dialyzed FBS, 0.0632 µM
# [28] = RPMI 5 mM glucose + 10% dialyzed FBS, 0.19 µM
# [29] = RPMI 5 mM glucose + 10% dialyzed FBS, 0.569 µM
# [30] = RPMI 5 mM glucose + 10% dialyzed FBS, 1.71 µM
# [31] = RPMI 5 mM glucose + 10% dialyzed FBS, 5.12 µM
# [32] = RPMI 5 mM glucose + 10% dialyzed FBS, 15.4 µM
# [33] = RPMI 5 mM glucose + 10% dialyzed FBS, 46.1 µM
SMILES,cell viability [1],cell viability [2],cell viability [3],cell viability [4],cell viability [5],cell viability [6],cell viability [7],cell viability [8],cell viability [9],cell viability [10],cell viability [11],cell viability [12],cell viability [13],cell viability [14],cell viability [15],cell viability [16],cell viability [17],cell viability [18],cell viability [19],cell viability [20],cell viability [21],cell viability [22],cell viability [23],cell viability [24],cell viability [25],cell viability [26],cell viability [27],cell viability [28],cell viability [29],cell viability [30],cell viability [31],cell viability [32],cell viability [33]
NNc1nncc2ccccc12,76.2%,105%,109%,103%,117%,122%,112%,136%,126%,117%,132%,87.8%,114%,128%,128%,152%,125%,156%,162%,131%,134%,115%,89.6%,124%,125%,143%,152%,135%,147%,163%,153%,156%,158%
CCOCC(O)COc1ccc(NC(=O)CC[S+](C)C)cc1 (stereo unspecified),88.2%,77.9%,93.7%,90.5%,94.2%,93.5%,106%,91.9%,109%,107%,84.8%,77.9%,92.1%,85.9%,80.9%,85.2%,103%,95.3%,76.7%,106%,104%,72.2%,76.2%,88.3%,82.6%,73.5%,91.2%,96.8%,95.9%,102%,107%,112%,72.1%
C1COC(NC(C2CC2)C2CC2)=N1,79.5%,78%,66.1%,95.3%,72.9%,87.9%,81.2%,21.6%,88.7%,99%,60.1%,72.5%,92%,72.4%,75.8%,79.5%,81.4%,87.2%,15.3%,75.6%,75.6%,45.9%,74.6%,89.1%,66.9%,75.7%,73.6%,81.8%,106%,16.6%,87.5%,105%,36.4%
CC(S)C(=O)NCC(=O)O (stereo unspecified),40%,99%,59.5%,95%,105%,101%,92.8%,103%,90.6%,113%,95%,33%,102%,50.5%,87.8%,114%,105%,101%,105%,84%,109%,108%,35.6%,92.5%,45%,101%,123%,108%,114%,118%,80.7%,119%,104%
CCCCc1nc2cc(/C=C/C(=O)NO)ccc2n1CCN(CC)CC,91.9%,91.8%,105%,98.1%,108%,108%,92.6%,61.1%,6.03%,4.68%,5.88%,85.4%,99.1%,94.8%,97.8%,109%,107%,94%,73%,5.16%,4.06%,5.64%,82.9%,79.1%,95.6%,94%,77.5%,99.6%,76.6%,57.7%,6.04%,4.68%,6.77%
CCN(CC)CCCC(C)Nc1nc(C)cc(Nc2ccc3nc(C)cc(N)c3c2)n1 (stereo unspecified),100%,104%,96.1%,100%,101%,115%,106%,114%,110%,99.7%,88.2%,75.2%,80.4%,75.3%,72.2%,69.6%,65.5%,75.5%,75.6%,63.9%,66.1%,72%,115%,97.1%,113%,107%,100%,118%,98.9%,106%,96.4%,99.6%,86.4%
CCCCCN(CCC12CC3CC(CC(C3)C1)C2)C(=O)NCCCc1ccncc1,96.2%,110%,108%,106%,102%,109%,107%,106%,107%,102%,89.9%,97.1%,92.9%,100%,106%,112%,110%,97.3%,114%,96.9%,108%,100%,86.9%,96%,106%,110%,105%,107%,106%,116%,120%,90.6%,97%
